Measurements reported in publication PMC4013053, “Identification of Selective Small Molecule Inhibitors of the Nucleotide-Binding Oligomerization Domain 1 (NOD1) Signaling Pathway” (PLoS ONE, 2014).

Key:
[1] = Immobilized artificial membrane (IAM) binding; format: physicochemical
Source text: (§1) Physicochemical analyses of compounds were completed at GSK.

[2] = Chromatographic hydrophobicity index (Chrom log D); format: physicochemical; details: pH 7.4
Source text: as §1

α1-acid glycoprotein = α1-acid glycoprotein (AGP) binding; format: in vitro ADME
Source text: as §1

NOD2 = NOD2 (Homo sapiens, UniProt Q9HC29); assay: MDP-stimulated IL-8 release in 293/hNOD2 cells; format: cell-based; details: HEK293 stably expressing human NOD2, IL-8 released into medium
NOD1 = biological target: T1, NOD1 (Homo sapiens, UniProt Q9Y239); assay: Tri-DAP-stimulated IL-8 secretion in primary human monocytes; format: cell-based; design: Monocytes were purified from heparinized human whole blood; endogenous in cells; host or cells: primary human blood monocytes; details: human primary peripheral blood monocytes, IL-8 released into medium; read-out: IC50 Monocyte Tri-DAP
T1 sequence (Q9Y239 1-953): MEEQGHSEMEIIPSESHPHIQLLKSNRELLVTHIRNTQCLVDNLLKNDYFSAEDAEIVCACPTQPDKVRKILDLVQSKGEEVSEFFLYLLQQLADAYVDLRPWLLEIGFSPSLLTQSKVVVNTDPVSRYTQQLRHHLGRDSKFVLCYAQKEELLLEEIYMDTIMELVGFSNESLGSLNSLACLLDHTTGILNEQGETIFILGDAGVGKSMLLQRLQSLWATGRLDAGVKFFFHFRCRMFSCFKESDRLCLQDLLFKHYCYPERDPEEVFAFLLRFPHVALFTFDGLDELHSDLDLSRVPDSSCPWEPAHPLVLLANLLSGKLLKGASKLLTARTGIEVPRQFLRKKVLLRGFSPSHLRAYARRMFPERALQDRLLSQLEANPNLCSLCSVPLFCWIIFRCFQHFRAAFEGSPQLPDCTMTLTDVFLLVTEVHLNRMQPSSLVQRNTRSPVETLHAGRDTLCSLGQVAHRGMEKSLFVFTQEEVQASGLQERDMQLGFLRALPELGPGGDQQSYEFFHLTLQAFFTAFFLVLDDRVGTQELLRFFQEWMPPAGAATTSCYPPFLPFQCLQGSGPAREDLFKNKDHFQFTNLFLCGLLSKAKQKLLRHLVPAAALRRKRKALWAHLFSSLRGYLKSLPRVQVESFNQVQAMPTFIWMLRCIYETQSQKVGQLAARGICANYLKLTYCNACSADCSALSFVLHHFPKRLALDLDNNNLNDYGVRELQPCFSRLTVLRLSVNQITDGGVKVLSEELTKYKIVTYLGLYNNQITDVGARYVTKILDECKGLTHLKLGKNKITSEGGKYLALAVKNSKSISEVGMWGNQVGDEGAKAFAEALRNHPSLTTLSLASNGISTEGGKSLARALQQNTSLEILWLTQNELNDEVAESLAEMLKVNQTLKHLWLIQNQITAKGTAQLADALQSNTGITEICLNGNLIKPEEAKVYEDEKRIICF
Method: Monocytes were purified from heparinized human whole blood by centrifugation on Ficoll (Histopaque 1077) followed by Percoll gradients. Monocyte purity was >95% by morphological assessment of Wright’s stained cytospins. Cells were seeded at 100,000 per well in 96-well plates in RPMI containing 10%HI-FBS, pre-incubated for 1 hour with compounds, and then stimulated with either 25 µg/mL Tri-DAP or 1 µg/mL MDP. The concentration of IL-8 in medium samples collected after 24-hour treatment was determined by HTRF whereas IL-1β, IL-6 and TNFα were measured using the MS6000 human pro-inflammatory-4 II tissue culture kit (Meso Scale Discovery).

TNFR1 = biological target: T2, TNFR1 (Homo sapiens, UniProt P19438); assay: TNFα-stimulated IL-8 release in 293/hNOD1 cells; format: cell-based; details: IL-8 released into medium
T2 construct: TNFR1 (TNFα stimulated IL-8 secretion in 293/hNOD1 cells); host or cells: 293/hNOD1 (HEK293)
T2 sequence (P19438 30-455): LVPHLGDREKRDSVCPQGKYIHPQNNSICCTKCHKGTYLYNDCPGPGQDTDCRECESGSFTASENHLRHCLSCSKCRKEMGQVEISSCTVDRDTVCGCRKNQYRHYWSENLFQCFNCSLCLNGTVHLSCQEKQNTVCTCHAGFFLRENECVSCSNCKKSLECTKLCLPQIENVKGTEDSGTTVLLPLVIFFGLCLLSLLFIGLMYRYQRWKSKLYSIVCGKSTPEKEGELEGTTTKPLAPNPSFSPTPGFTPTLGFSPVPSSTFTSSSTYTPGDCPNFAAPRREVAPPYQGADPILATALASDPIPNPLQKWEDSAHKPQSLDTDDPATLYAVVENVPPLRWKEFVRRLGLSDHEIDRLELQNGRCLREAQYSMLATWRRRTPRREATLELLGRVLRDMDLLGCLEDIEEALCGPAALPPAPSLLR
Method: Inhibitors of iE-DAP-stimulated IL-8 release were screened in a 1536-well assay in which 293/hNOD1 cells (5000 cells/well) in DMEM high glucose medium supplemented with 0.1% FBS and 10 µg/mL Blasticidin S were stimulated with 60 ng/mL (200 nM) iE-DAP (EC80) in the presence of 10 µM compounds. After 24 hours the amount of IL-8 secreted into the medium was determined by homogeneous time resolved fluorescence (HTRF) assay by the direct addition of a 1∶1 mix of europium cryptate and XL665-conjugated anti-IL-8 antibodies according to the manufacturer’s instructions (Cisbio). Fluorescence was measured after 2 hours in a ViewLux imager using UMB-AMC excitation and 618–671 nm emission filters (Perkin Elmer). […] Inhibition of TNFR1-induced IL-8 release was performed with 293/hNOD1 cells stimulated with 20 ng/mL (∼EC95) rhTNFα.
A high-throughput screen of about 2.2 million compounds was conducted for inhibitors of the NOD1 signaling pathway using suppression of iE-DAP stimulated IL-8 secretion in HEK293 cells stably expressing human NOD1 (293/hNOD1 cells). […] These assays were chosen to assess the selectivity of hits because the signaling pathways activated by these receptors converge at the level of the TAB/TAK1/IKK complex.

full length human RIP2 = biological target: T3, full length human RIP2 (Homo sapiens, UniProt O43353); assay: RIP2 kinase autophosphorylation (ADP-Glo); format: biochemical; details: RIPK2 autophosphorylation
T3 construct: autophosphorylation of full length human FLAG-6His tagged RIP2 expressed and purified from baculovirus; FLAG; 6His; made in house
Method: Direct effects of compounds on RIP2 kinase activity was determined by autophosphorylation of full length human FLAG-6His tagged RIP2 expressed and purified from baculovirus. Enzyme was pre-incubated with compounds in assay buffer (50 mM HEPES pH 7.5, 25 mM MgCl2, 0.05%[w/v] CHAPS, 1 mM DTT and 0.05 mg/mL BSA) in 384-well plates, and then incubated with 10 µM ATP for 2 hours at room temperature. The amount of ADP generated was measured using the ADP-Glo universal ADP detection assay for kinases (Promega) and luminescence quantified on a ViewLux imager.

human serum albumin = human serum albumin (Homo sapiens, UniProt P02768); assay: Human serum albumin (HSA) binding; format: in vitro ADME
Source text: as §1

T3 sequence (O43353 whole entry): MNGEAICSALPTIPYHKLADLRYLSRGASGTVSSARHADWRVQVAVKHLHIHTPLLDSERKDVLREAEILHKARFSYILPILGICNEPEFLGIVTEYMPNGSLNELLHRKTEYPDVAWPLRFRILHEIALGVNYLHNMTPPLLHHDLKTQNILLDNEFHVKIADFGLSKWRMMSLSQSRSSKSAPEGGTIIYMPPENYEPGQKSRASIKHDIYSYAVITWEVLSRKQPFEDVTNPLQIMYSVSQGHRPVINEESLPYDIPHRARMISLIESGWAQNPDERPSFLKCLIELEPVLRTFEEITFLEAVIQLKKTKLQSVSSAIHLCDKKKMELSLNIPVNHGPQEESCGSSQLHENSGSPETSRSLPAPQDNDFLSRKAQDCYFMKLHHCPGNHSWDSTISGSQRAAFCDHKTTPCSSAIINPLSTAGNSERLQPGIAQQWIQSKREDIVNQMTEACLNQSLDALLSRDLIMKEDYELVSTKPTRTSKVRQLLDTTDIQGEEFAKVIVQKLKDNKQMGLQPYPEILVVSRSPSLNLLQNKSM
human serum albumin, sequence (P02768 25-609): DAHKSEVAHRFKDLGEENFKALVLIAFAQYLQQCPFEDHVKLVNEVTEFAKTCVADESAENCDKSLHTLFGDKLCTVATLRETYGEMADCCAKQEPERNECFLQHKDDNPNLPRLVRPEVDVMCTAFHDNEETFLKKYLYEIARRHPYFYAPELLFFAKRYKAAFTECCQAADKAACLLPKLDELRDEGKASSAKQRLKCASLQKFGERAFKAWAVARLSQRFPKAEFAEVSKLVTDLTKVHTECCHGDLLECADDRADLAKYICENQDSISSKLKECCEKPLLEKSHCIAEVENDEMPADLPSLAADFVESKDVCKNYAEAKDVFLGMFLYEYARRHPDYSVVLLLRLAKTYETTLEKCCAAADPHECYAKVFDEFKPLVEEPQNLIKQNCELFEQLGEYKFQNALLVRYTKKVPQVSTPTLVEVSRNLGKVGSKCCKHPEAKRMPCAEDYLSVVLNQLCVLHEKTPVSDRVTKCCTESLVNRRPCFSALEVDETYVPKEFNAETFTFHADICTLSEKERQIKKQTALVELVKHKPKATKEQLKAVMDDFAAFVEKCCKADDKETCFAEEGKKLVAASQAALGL
NOD2, sequence (Q9HC29 whole entry): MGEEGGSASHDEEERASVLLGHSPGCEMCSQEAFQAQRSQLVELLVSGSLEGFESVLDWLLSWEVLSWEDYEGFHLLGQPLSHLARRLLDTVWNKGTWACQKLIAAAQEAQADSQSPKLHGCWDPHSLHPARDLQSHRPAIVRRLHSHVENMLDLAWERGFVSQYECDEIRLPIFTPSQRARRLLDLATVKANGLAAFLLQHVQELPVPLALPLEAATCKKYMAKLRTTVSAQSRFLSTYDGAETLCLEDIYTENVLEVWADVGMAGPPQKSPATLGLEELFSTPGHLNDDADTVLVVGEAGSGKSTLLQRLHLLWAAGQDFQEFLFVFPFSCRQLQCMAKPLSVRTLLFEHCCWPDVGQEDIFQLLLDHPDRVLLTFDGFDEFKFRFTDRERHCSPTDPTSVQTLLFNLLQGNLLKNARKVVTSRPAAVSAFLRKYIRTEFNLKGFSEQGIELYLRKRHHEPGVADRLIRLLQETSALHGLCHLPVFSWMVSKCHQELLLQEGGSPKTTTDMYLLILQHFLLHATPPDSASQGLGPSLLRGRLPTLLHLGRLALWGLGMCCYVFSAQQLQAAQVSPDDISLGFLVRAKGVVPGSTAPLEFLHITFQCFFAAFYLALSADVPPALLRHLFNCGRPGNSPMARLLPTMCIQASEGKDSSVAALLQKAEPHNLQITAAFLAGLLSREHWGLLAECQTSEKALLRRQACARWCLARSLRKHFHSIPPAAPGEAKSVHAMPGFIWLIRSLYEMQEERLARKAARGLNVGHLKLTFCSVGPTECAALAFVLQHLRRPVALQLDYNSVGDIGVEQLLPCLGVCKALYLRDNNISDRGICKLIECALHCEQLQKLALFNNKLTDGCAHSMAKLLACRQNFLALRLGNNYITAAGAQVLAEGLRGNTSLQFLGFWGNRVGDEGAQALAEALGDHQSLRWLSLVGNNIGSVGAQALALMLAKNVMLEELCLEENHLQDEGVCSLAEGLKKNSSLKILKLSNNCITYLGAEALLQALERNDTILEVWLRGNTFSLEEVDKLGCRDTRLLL

Row | SMILES | IAM binding [1] | chromatographic logD [2] | AGP binding (α1-acid glycoprotein) | IC50 (NOD2) | IC50 (NOD1) | IC50 (TNFR1) | IC50 (full length human RIP2) | HSA binding (human serum albumin)
1 | Cc1ccc(S(=O)(=O)Nc2cccc(C(=O)Nc3ccc4nc(C)sc4c3)c2)cc1 [Compound 16] | 2.45 log K | 4.89 | 85.71% | > 30 µM | 0.2 µM | > 30 µM | > 50 µM | 97.2%
2 | Cn1c(=O)[nH]c(=O)c2c1nc(CCSc1ccccc1)n2Cc1ccccc1 [SB711] | 2.41 log K | 5.95 | – | > 50 µM | 3.2 µM | > 50 µM | > 100 µM | 95.94%
3 | Cc1nc2ccc(NC(=O)c3cccc(NS(=O)(=O)c4ccc(F)cc4)c3)cc2s1 [GSK966] | 2.38 log K | 4.64 | 83.38% | – | 2 µM | > 50 µM | > 100 µM | 97.14%

Next, values leading:

Row | IAM binding [1] | chromatographic logD [2] | AGP binding (α1-acid glycoprotein) | IC50 (NOD2) | IC50 (NOD1) | IC50 (TNFR1) | IC50 (full length human RIP2) | HSA binding (human serum albumin) | SMILES
4 | 1.68 log K | 4.27 | 80.81% | > 50 µM | 1 µM | > 50 µM | > 50 µM | 97.38% | CCc1ccc(S(=O)(=O)Nc2cc(-n3c(C)nc4ccccc4c3=O)ccc2F)s1 [GSK223]
5 | – | – | – | > 50 µM | 0.06 µM | > 50 µM | > 50 µM | – | Cc1nc2ccccc2c(=O)n1-c1ccc(Cl)c(NS(=O)(=O)c2ccccc2F)c1 [Compound 22]
